According to patent US20040259866A1, “Calcium channel blockers comprising two benzhydril moieties” (priority 1998, published 2004):
Where two headings read alike, the source gives them in different places.

What was measured:
[1] = biological target: T1, N-type calcium channels (α1B+α2δ+β1b cDNA subunits) (Rattus norvegicus, UniProt Q02294); assay: Selectivity patch clamp, N-type channels in HEK 293 (Example 7); format: cell-based; conditions: Tested at 0.1 Hz, 5 mM Ba2+
T1 construct: expressed in transfected cells
T1 sequence (Q02294 whole entry): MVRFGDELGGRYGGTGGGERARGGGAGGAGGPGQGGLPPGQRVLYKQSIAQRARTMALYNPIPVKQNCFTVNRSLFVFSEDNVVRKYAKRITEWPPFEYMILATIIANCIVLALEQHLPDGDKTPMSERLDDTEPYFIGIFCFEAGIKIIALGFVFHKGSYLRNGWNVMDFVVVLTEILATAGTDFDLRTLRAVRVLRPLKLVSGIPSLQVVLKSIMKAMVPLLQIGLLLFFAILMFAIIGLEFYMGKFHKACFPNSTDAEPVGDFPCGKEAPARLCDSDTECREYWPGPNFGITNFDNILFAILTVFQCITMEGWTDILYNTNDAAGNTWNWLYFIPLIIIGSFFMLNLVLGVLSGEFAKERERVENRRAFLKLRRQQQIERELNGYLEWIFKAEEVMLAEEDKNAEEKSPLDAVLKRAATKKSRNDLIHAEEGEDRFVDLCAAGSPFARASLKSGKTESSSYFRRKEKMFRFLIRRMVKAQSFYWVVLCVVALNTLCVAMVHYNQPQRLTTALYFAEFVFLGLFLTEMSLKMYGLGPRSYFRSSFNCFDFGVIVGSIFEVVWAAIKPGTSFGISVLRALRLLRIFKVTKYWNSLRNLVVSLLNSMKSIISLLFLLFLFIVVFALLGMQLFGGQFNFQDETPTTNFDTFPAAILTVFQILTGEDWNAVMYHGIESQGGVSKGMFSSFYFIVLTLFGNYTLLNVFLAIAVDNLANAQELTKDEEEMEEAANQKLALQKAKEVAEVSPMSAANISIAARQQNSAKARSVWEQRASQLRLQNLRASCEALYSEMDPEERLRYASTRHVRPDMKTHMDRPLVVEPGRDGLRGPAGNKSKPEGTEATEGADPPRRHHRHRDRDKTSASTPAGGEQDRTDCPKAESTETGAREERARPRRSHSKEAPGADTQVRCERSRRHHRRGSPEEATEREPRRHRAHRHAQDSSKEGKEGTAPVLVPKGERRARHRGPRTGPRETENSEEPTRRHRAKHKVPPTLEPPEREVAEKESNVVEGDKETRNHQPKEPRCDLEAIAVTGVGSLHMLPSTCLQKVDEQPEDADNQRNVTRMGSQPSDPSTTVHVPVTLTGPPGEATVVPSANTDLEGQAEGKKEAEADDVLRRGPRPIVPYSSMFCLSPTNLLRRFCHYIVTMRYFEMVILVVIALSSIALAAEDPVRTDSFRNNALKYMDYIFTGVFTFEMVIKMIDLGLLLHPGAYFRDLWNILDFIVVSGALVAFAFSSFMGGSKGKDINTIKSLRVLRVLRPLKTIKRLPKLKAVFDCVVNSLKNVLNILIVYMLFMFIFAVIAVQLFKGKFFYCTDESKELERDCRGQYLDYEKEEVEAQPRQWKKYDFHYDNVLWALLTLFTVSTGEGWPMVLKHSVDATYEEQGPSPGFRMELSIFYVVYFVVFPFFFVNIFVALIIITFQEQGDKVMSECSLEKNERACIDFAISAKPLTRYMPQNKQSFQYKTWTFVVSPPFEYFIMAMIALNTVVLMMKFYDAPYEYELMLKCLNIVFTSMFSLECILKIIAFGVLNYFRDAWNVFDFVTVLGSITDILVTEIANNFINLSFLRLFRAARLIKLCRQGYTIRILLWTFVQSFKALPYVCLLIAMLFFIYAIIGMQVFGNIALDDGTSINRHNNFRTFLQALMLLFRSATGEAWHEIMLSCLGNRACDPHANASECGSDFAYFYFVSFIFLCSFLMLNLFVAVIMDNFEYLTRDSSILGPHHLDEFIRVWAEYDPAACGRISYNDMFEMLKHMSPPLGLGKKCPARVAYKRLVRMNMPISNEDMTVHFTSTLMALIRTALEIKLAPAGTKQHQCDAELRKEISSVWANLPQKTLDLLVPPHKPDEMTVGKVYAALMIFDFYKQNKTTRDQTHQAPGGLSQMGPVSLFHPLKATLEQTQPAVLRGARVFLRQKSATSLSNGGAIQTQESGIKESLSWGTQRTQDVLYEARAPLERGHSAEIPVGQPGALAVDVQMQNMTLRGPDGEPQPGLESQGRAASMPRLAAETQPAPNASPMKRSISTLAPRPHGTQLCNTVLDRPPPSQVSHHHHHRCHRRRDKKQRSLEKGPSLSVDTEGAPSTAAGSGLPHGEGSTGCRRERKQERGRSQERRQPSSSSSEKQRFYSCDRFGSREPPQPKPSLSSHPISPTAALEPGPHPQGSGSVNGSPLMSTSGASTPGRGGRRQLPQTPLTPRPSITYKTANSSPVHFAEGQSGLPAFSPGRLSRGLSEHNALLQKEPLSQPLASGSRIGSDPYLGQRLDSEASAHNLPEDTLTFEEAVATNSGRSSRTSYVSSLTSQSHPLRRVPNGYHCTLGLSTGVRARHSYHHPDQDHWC

[2] = test system: P/Q-type channels (α1A+α2δ+β1b cDNA subunits); assay: Selectivity patch clamp, P/Q-type channels in HEK 293 (Example 7); format: cell-based; conditions: Tested at 0.1 Hz, 5 mM Ba2+
[3] = biological target: T2, rat α1B+α2b+β1b channels (N-type channels) (Rattus norvegicus, UniProt Q02294); assay: Block of α1B N-type channels, whole cell patch recordings (Example 6); format: cell-based; conditions: HEK 293, 5 mM barium as charge carrier
T2 construct: expressed in transfected cells
T2 sequence (Q02294 whole entry): as above
Method: Antagonist activity was measured using whole cell patch recordings on human embryonic kidney cells either stably or transiently expressing rat α1B+α2b+β1b channels (N-type channels) with 5 mM barium as a charge carrier.
For transient expression, host cells, such as human embryonic kidney cells, HEK 293 (ATCC# CRL 1573) were grown in standard DMEM medium supplemented with 2 mM glutamine and 10% fetal bovine serum. HEK 293 cells were transfected by a standard calcium-phosphate-DNA coprecipitation method using the rat α1B+β1b+α2δ N-type calcium channel subunits in a vertebrate expression vector (for example, see Current Protocols in Molecular Biology).
After an incubation period of from 24 to 72 hrs the culture medium was removed and replaced with external recording solution (see below). Whole cell patch clamp experiments were performed using an Axopatch 200B amplifier (Axon Instruments, Burlingame, Calif.) linked to an IBM compatible personal computer equipped with pCLAMP software. Borosilicate glass patch pipettes (Sutter Instrument Co., Novato, Calif.) were polished (Microforge, Narishige, Japan) to a resistance of about 4 MΩ when filled with cesium methanesulfonate internal solution (composition in MM: 109 CsCH3SO4, 4 MgCl2, 9 EGTA, 9 HEPES, pH 7.2). Cells were bathed in 5 mM Ba^++ (in mM: 5 BaCl2, 1 MgCl2, 10 HEPES, 40 tetraethylammonium chloride, 10 glucose, 87.5 CsCl pH 7.2). […] Drugs were perfused directly into the vicinity of the cells using a microperfusion system.
Normalized dose-response curves were fit (Sigmaplot 4.0, SPSS Inc., Chicago, Ill.) by the Hill equation to determine IC50 values. Steady-state inactivation curves were plotted as the normalized test pulse amplitude following 5 s inactivating prepulses at +10 mV increments. Inactivation curves were fit (Sigmaplot 4.0) with the Boltzman equation, Ipeak (normalized)=1/(1+exp((V-Vh)z/25.6)), where V and Vh are the conditioning and half inactivation potentials, respectively, and z is the slope factor.
Using the procedure set forth above, various compounds of the invention were tested for their ability to block N-type calcium channels.

[4] = test system: L-type channels (α1C+α2δ+β1b cDNA subunits); assay: Selectivity patch clamp, L-type channels in HEK 293 (Example 7); format: cell-based; conditions: Tested at 0.1 Hz, 5 mM Ba2+
rat formalin model = assay: Formalin-induced pain model; format: in vivo; conditions: 30 mg/kg IP, 10 minutes prior to formalin, saline control=100%
Method: The effects of intrathecally delivered compounds of the invention on the rat formalin model were measured. The compounds were reconstituted to stock solutions of approximately 10 mg/ml in propylene glycol. Eight Holtsman male rats of 275-375 g size were randomly selected per test compound.
The following study groups were used, with test compounds, vehicle control (propylene glycol) and saline delivered intraperitoneally (IP):
Prior to initiation of drug delivery baseline behavioral and testing data were taken.
On the morning of testing, a small metal band (0.5 g) was loosely placed around the right hind paw. The rat was placed in a cylindrical Plexiglas chamber for adaptation a minimum of 30 minutes. Test compound or vehicle control was administered 10 minutes prior to formalin injection (50 μl of 5% formalin) into the dorsal surface of the right hindpaw of the rat. The animal was then placed into the chamber of the automated formalin apparatus where movement of the formalin injected paw was monitored and the number of paw flinches tallied by minute over the next 60 minutes. (See Malmberg, A. M., and Yaksh, T. L., Anesthesiology (1993) 79:270-281.)
Results are presented as Maximum Possible Effect±SEM, where saline control=100%.

[5] = biological target: T3, human α1G subunits (T-type channels) (Homo sapiens, UniProt O43497); assay: Block of α1G T-type channels, patch clamp in HEK cell lines (Example 8); format: cell-based
T3 construct: expressed in transfected cells
T3 sequence (O43497 whole entry): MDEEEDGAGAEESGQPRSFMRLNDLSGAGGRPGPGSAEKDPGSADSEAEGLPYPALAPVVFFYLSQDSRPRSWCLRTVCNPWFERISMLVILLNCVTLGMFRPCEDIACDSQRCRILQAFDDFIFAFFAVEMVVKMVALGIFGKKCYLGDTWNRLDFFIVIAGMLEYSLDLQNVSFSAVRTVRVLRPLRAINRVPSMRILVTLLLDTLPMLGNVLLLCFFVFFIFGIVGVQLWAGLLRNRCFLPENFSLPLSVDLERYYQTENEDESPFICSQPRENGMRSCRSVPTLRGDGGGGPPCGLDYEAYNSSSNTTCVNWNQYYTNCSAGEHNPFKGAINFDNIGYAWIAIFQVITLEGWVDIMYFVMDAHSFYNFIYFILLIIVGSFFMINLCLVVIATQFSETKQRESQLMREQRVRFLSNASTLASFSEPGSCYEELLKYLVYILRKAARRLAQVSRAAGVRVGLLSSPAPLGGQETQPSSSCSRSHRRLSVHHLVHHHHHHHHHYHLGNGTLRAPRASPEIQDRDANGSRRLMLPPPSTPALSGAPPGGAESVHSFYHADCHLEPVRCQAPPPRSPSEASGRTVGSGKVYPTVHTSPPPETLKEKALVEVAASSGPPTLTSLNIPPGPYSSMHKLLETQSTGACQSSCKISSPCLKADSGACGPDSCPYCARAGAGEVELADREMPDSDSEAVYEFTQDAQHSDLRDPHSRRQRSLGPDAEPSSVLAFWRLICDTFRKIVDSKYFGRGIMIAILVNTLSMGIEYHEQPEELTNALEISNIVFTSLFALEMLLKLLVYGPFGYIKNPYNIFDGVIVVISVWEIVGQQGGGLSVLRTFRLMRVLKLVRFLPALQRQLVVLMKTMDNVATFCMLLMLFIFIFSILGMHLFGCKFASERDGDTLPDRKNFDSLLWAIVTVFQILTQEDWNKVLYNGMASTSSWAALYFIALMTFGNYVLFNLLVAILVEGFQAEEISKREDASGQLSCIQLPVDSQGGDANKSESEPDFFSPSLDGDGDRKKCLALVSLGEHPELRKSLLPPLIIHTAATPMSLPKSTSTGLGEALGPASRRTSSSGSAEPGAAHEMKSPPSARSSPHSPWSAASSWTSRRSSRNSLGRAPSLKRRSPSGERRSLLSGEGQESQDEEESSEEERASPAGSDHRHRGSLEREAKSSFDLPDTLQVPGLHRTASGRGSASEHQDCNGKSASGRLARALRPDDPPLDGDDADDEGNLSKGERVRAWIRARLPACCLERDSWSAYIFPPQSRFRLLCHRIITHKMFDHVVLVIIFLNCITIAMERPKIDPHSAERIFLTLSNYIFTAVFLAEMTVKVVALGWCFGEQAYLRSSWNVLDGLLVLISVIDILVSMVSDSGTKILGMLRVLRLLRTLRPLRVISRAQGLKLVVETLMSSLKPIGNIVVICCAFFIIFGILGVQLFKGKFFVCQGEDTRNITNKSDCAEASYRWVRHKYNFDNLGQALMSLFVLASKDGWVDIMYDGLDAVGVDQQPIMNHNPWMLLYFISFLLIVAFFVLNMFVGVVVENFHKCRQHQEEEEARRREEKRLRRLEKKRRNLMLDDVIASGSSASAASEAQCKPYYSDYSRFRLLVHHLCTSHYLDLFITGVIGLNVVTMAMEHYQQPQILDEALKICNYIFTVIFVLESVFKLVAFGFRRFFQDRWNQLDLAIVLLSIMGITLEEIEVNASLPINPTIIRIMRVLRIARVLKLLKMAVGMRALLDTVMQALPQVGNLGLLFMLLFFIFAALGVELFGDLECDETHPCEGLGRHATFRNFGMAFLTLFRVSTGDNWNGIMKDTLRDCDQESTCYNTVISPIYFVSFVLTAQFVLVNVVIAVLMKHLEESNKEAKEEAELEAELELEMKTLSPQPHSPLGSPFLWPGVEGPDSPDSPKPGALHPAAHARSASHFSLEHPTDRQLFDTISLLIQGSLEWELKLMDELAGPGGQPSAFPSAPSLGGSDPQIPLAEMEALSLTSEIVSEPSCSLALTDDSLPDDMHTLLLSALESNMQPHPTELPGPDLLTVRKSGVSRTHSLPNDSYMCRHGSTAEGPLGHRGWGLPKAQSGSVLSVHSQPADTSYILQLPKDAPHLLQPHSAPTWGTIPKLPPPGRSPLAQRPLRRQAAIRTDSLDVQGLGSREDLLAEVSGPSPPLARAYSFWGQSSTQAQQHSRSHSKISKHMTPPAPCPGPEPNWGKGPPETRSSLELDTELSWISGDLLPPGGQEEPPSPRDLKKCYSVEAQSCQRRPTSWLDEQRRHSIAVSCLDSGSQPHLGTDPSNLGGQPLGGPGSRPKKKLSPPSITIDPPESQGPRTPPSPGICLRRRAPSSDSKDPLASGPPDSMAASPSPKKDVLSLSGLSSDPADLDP
Method: Standard patch-clamp techniques were employed to identify blockers of T-type currents. Briefly, previously described HEK cell lines stably expressing human α1G subunits were used for all the recordings (passage #: 4-20, 37° C., 5% CO2). To obtain T-type currents, plastic dishes containing semi-confluent cells were positioned on the stage of a ZEISS AXIOVERT S100 microscope after replacing the culture medium with external solution (see below). Whole-cell patches were obtained using pipettes (borosilicate glass with filament, O.D.: 1.5 mm, I.D.: 0.86 mm, 10 cm length), fabricated on a SUTTER P-97 puller with resistance values of ˜5 MΩ (see below for internal medium).
In the non-inactivating protocol, the holding potential is set at −110 mV and with a pre-pulse at −100 mV for 1 second prior to the test pulse at −40 mV for 50 ms; in the inactivation protocol, the pre-pulse is at approximately −85 mV for 1 second, which inactivates about 15% of the T-type channels, as shown below. [formula]
Test compounds were dissolved in external solution, 0.1-0.01% DMSO. After ˜10 min rest, they were applied by gravity close to the cell using a WPI microfil tubing. The “non-inactivated” pre-pulse was used to examine the resting block of a compound. The “inactivated” protocol was employed to study voltage-dependent block, but the initial data shown below were mainly obtained using the non-inactivated protocol only. IC50 values are shown for various compounds of the invention in Table 5.

[6] = 0.067 Hz, read-out: Block of α1B N-type Channels IC50, 0.067 Hz
[7] = 0.2 Hz, read-out: Block of α1B N-type Channels IC50, 0.2 Hz
[8] = 100 mV (non-inactivating protocol), read-out: Block of α1G T-type Channels IC50, 100 mV
[9] = 80 mV (inactivation protocol), read-out: Block of α1G T-type Channels IC50, 80 mV

Row | SMILES | IC50 [1] [µM] | IC50 [2] [µM] | IC50 [3, 6] [µM] | IC50 [3, 7] [µM] | IC50 [4] [µM] | Maximum Possible Effect ± SEM, Phase I (rat formalin model) [%] | Maximum Possible Effect ± SEM, Phase II (rat formalin model) [%] | Maximum Possible Effect ± SEM, Phase IIA (rat formalin model) [%] | IC50 [5, 8] [µM] | IC50 [5, 9] [µM]
1 | O=C(CC(c1ccccc1)c1ccccc1)N1CCN(C(c2ccccc2)c2ccc(C(F)(F)F)cc2)CC1 (centres unmarked) [Compound P1] | 0.19 | 0.97 | 0.1 | 0.074 | 19.6 | – | – | – | – | –
2 | O=C(CC(c1ccccc1)c1ccccc1)N1CCN(C(c2ccccc2)c2cccc(C(F)(F)F)c2)CC1 (centres unmarked) [Compound P2] | 0.113 | 1.63 | 0.2 | 0.105 | 6.6 | 57 ± 14 | 67 ± 10 | 61 ± 11 | – | –
3 | COc1ccc(C(c2ccc(C(F)(F)F)cc2)N2CCN(C(=O)CC(c3ccccc3)c3ccccc3)CC2)cc1 (centres unmarked) [Compound P3] | 0.185 | 7.59 | 0.291 | 0.111 | > 10 | 89 ± 8 | 79 ± 4 | 85 ± 5 | – | –
4 | CC(C)(C)c1cc(C(c2ccccc2)N2CCN(C(=O)CC(c3ccccc3)c3ccccc3)CC2)cc(C(C)(C)C)c1O (centres unmarked) [Compound P4] | 0.251 | > 10 | 0.213 | 0.114 | > 10 | – | – | – | – | –
5 | CCOC(=O)C1CN(C(c2ccccc2)c2ccccc2)CCN1C(=O)CC(c1ccccc1)c1ccccc1 (centres unmarked) [Compound P5] | 0.073 | 5 | 0.16 | 0.12 | 210 | – | – | – | – | –
6 | O=C(CC(c1ccccc1)c1ccccc1)N1CCN(C(c2ccccc2)c2ccc(Cl)cc2)CC1 (centres unmarked) [Compound P6] | 0.16 | 4.5 | 0.17 | 0.12 | 133 | – | – | – | 0.081 | –
7 | O=C(CC(c1ccccc1)c1ccccc1)N1CCN(C(c2ccccc2)c2ccc3c(c2)OCO3)CC1 (centres unmarked) [Compound P7] | 0.101 | 6.5 | 0.213 | 0.137 | 15.8 | 56 ± 12 | 67 ± 6 | 61 ± 11 | – | –
8 | Cl.O=C(O)C1CN(C(c2ccccc2)c2ccccc2)CCN1C(=O)CC(c1ccccc1)c1ccccc1 (centres unmarked) [Compound P8] | 0.36 | 3.4 | 0.23 | 0.14 | 37.1 | 78 ± 5 | 70 ± 15 | 57 ± 18 | – | –
9 | Cc1ccc(C(c2ccccc2)N2CCN(C(=O)CC(c3ccccc3)c3ccccc3)CC2)c(C)c1 (centres unmarked) [Compound P18] | 0.217 | 3.59 | 0.324 | 0.237 | 13.4 | 73 ± 17 | 84 ± 12 | 78 ± 13 | 0.035 | –
10 | O=C(CC(c1ccccc1)c1ccccc1)N1CCN(C(c2ccccc2)c2ccc(Cl)cc2Cl)CC1 (centres unmarked) [Compound P29] | 0.385 | 26 | – | – | 126 | 78 ± 17 | 70 ± 10 | 61 ± 9 | 0.033 | 0.004
11 | O=C(CC(c1ccccc1)c1ccccc1)N1CCN(C(c2ccccc2)c2ccccc2Cl)CC1 (centres unmarked) [Compound P35] | 0.209 | 7.03 | 0.211 | 0.092 | 106 | 78 ± 8 | 67 ± 8 | 52 ± 11 | – | 0.141
12 | O=C(CC(c1ccccc1)c1ccccc1)N1CCN(C(c2ccccc2)c2cccc(Cl)c2)CC1 (centres unmarked) [Compound P36] | 0.206 | 0.93 | 0.114 | 0.044 | 8.5 | 62 ± 14 | 60 ± 10 | 42 ± 9 | – | 0.055
13 | O=C(CC(c1ccccc1)c1ccccc1)N1CCN([C@@H](c2ccccc2)c2ccc(Cl)cc2)CC1 [Compound P47] | 0.197 | 1.86 | 0.237 | 0.138 | 4.37 | 60 ± 7 | 55 ± 8 | 54 ± 9 | 1.44 | 0.464
14 | O=C(CN(c1ccccc1)c1ccccc1)N1CCN(C(c2ccccc2)c2cccc(Cl)c2Cl)CC1 (centres unmarked) [Compound P50] | – | – | – | – | – | 60 ± 7 | 63 ± 10 | 63 ± 13 | – | –
